In series [1] the target is T1, airway epithelial sodium currents (epithelial Na+ channel, ENaC) (Canis lupus familiaris, UniProt A0A8I3MKE6+A0A8I3Q679+Q95165).
T1 sequence (A0A8I3Q679 1-649): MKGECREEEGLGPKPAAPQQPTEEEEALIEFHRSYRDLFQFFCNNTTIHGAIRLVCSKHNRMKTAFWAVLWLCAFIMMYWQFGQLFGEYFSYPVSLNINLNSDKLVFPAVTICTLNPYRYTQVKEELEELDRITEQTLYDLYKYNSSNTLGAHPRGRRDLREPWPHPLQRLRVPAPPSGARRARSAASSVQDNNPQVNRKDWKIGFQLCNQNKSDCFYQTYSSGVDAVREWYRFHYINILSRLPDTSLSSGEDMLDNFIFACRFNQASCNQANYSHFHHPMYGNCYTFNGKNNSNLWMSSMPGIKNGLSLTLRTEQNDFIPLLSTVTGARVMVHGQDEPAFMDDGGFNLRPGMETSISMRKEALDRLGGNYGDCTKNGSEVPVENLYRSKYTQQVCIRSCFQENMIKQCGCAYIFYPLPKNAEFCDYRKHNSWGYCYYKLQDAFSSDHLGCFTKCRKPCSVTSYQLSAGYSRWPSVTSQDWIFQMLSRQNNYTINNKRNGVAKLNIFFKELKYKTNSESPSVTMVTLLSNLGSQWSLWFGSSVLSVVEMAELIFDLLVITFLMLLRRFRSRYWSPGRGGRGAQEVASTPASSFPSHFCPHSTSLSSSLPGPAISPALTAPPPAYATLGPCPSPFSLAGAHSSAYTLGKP
T1 sequence (Q95165 1-641): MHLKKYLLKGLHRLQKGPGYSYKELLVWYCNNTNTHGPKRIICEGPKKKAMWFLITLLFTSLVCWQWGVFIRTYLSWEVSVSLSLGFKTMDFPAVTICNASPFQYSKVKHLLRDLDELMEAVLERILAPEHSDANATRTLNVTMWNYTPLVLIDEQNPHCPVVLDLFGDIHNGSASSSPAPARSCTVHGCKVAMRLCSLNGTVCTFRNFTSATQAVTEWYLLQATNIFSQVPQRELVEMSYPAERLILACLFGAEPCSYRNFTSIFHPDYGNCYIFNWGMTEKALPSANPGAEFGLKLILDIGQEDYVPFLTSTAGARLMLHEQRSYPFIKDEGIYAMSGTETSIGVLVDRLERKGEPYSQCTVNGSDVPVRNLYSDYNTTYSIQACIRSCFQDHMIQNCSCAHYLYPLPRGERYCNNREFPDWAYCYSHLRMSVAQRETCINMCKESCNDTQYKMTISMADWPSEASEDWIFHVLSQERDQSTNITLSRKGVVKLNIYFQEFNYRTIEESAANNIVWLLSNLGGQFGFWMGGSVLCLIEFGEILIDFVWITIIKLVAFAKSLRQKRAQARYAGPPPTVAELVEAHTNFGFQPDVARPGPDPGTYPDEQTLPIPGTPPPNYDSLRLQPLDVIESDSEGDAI
T1 sequence (A0A8I3MKE6 1-646): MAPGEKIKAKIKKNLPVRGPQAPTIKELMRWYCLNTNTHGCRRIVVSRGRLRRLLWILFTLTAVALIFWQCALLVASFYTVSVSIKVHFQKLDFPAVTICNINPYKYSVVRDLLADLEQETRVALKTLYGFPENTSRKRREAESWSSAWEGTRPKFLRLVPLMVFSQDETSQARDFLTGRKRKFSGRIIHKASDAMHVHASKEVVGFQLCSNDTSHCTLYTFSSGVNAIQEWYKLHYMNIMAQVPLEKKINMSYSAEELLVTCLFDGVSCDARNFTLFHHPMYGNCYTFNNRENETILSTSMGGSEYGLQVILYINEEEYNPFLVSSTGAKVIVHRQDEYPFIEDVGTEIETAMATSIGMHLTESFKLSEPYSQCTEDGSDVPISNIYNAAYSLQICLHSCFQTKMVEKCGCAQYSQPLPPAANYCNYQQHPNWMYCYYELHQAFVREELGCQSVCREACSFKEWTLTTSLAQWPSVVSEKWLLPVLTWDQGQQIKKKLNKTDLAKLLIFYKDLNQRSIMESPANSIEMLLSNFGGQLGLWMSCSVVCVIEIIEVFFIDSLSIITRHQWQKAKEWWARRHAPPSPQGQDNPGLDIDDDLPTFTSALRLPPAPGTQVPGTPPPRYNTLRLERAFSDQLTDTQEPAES
The experiment in a line: In vitro measure of sodium channel blocking activity (short circuit current, airway epithelial monolayers in Ussing chambers). The series is classed as cell-based, human, dog, sheep or rodent. The following applies: lumenal drug inhibition of ISC in airway epithelial monolayers, value ± spread, n in same cell. The protocol:
In Vitro Measure of Sodium Channel Blocking Activity and Reversibility
One assay used to assess mechanism of action and/or potency of the compounds of the present invention involves the determination of lumenal drug inhibition of airway epithelial sodium currents measured under short circuit current (ISC) using airway epithelial monolayers mounted in Ussing chambers. Cells obtained from freshly excised human, dog, sheep or rodent airways are seeded onto porous 0.4 micron Snapwell™ Inserts (CoStar), cultured at air-liquid interface (ALI) conditions in hormonally defined media, and assayed for sodium transport activity (ISC) while bathed in Krebs Bicarbonate Ringer (KBR) in Using chambers. All test drug additions are to the lumenal bath with half-log dose addition protocols (from 1×10^−11 M to 3×10^−5M), and the cumulative change in ISC (inhibition) recorded. All drugs are prepared in dimethyl sulfoxide as stock solutions at a concentration of 1×10^−2 M and stored at −20° C. Eight preparations are typically run in parallel; two preparations per run incorporate amiloride and/or benzamil as positive controls. After the maximal concentration (5×10^−5 M) is administered, the lumenal bath is exchanged three times with fresh drug-free KBR solution, and the resultant ISC measured after each wash for approximately 5 minutes in duration. Reversibility is defined as the percent return to the baseline value for sodium current after the third wash. All data from the voltage clamps are collected via a computer interface and analyzed off-line.
Dose-effect relationships for all compounds are considered and analyzed by the Prism 3.0 program. IC50 values, maximal effective concentrations, and reversibility are calculated and compared to amiloride and benzamil as positive controls.

The values below come from US8431579B2, “Capped pyrazinoylguanidine sodium channel blockers” (Parion Sciences, Inc., priority 2003, dated 2013).

What is called melting point is the temperature, or range, at which the solid turns liquid. Take `N=C(NCCCCc1ccc(OCC(=O)N(CCO)CCO)cc1)NC(=O)c1nc(Cl)c(N)nc1N`: the melting point was 114 to 121.16 °C. A word on the EC50: it is the concentration at which the effect is half-maximal. Read a high EC50 as weaker potency. For `N=C(NCCCCc1ccc(OCC(O)COCC(O)CO)cc1)NC(=O)c1nc(Cl)c(N)nc1N` (centres unmarked) [compound 15143], the EC50 in series [1] is 7 ± 3 nM. Compound `N#CCOc1ccc(CCCCNC(=N)NC(=O)c2nc(Cl)c(N)nc2N)cc1` [compound 16208] yielded an EC50 in series [1] of 11 ± 4 nM. In turn, `CN(C)C(=O)COc1ccc(CCCCNC(=N)NC(=O)c2nc(Cl)c(N)nc2N)cc1` [compound 16313] gave an EC50 in series [1] of 15 ± 4 nM. Same read-out and setting: the value for `N=C(NCCCCc1ccc(OCC(=O)NCC(N)=O)cc1)NC(=O)c1nc(Cl)c(N)nc1N` [compound 16314] was 13 ± 2 nM. Still for that read-out and setting: the value for `N=C(NCCCCc1ccc(OCC(=O)Nc2ncc[nH]2)cc1)NC(=O)c1nc(Cl)c(N)nc1N` [compound 16437] was 13 ± 7 nM; that for `N=C(NCCCCc1ccc(OCC(=O)Nc2ccccc2)cc1)NC(=O)c1nc(Cl)c(N)nc1N` [compound 17482] was 16 ± 4 nM; that for `CN(C)C(=S)Oc1ccc(CCCCNC(=N)NC(=O)c2nc(Cl)c(N)nc2N)cc1` [compound 17846] was 11 ± 6 nM.

Compound `N=C(NCCCCc1ccc(OCCCc2nnn[nH]2)cc1)NC(=O)c1nc(Cl)c(N)nc1N` [compound 17926] showed an EC50 in series [1] of 25 ± 9 nM. The same measure, in the same setting: the value for `CC(C)[C@H](NS(=O)(=O)c1ccc(CCCCNC(=N)NC(=O)c2nc(Cl)c(N)nc2N)cc1)C(N)=O` [compound 19008] was 9 ± 1 nM. Same read-out and setting: the value for `N=C(NCCCCc1ccc(OCCCc2ncc[nH]2)cc1)NC(=O)c1nc(Cl)c(N)nc1N` [compound 23022] was 12 ± 3 nM.
